{"source": "paper PMC9145754", "about": "“Novel Soloxolone Amides as Potent Anti-Glioblastoma Candidates: Design, Synthesis, In Silico Analysis and Biological Activities In Vitro and In Vivo” (Pharmaceuticals, 2022)", "key": {"U118 cells": {"test_system": "U118 cells", "test": "Scratch assay (2D migration)", "format": "cell-based, human", "conditions": "U118, 12 at 100 nM, 48 h", "protocol": "To evaluate the ability of tryptamide 12 to suppress the migration potential of glioblastoma cells, two independent approaches were undertaken, including assessment of cell movement on a 2D surface (scratch assay) and through a trans-well membrane (CIM-Plate).\nTo assess the 2D motility of glioblastoma cells, U118 cells were seeded in triplicate in 6-well plates at a density of 8 × 10^5 cells/well and cultured to 80% confluence. Thereafter, the cell monolayers were scratched with 10 µL pipette tips and washed twice with PBS to remove floating cells and cell debris and treated with 12 at 100 nM for 48 h. At 0 h and 48 h, the scratched cell monolayers were imaged using a Primo Vert microscope with phase contrast optics (ZEISS, Oberkochen, Germany) equipped with a AxioCam ERc5s camera (ZEISS, Oberkochen, Germany). The wound closure rate was calculated using ImageJ software. In total, 4–5 regions on a single scratch were analyzed."}, "U87 glioblastoma": {"test_system": "U87 glioblastoma", "test": "Subcutaneous U87 glioblastoma xenograft model", "format": "in vivo, Balb/C nude mice", "protocol": "Given the high antitumor potential of 12 with respect to glioblastoma cells observed in vitro, we further questioned whether the investigated triterpenoid suppresses the growth of glioblastoma in a murine model. To understand this, 12 was intraperitoneally injected as a solution in 10% Tween-80 at a dosage of 20 mg/kg into nude mice bearing subcutaneously implanted human U87 glioblastomas (the experimental setup is presented in Figure 8A). […] Analysis of tumor weights also confirmed the high antitumor activity of 12, which decreased this parameter by 2.1- and 3.4-fold compared to the untreated and vehicle-treated groups, respectively (Figure 8D).\nA xenograft model of tumor progression was induced by subcutaneous (s.c.) injection of U87 glioblastoma cells (2 × 10^7 cells/mL) suspended in 0.1 mL of saline buffer with 0.05 mL of Matrigel® Matrix (Corning, NY, USA) into the left flank of Balb/C nude mice. On day 5 after tumor transplantation, the mice were divided into three groups (n = 6 per group): (1) mice without treatment (control); (2) mice that received intraperitoneal (i.p.) injections of 10% Tween-80 (vehicle); and (3) mice that received i.p. injections of 12 in 10% Tween-80 at a dose of 20 mg/kg. The treatment was carried out thrice per week. The total number of injections was seven. During the experiment, the tumor volumes were determined three times a week using caliper measurements and were calculated as V= (D × d^2)/2, where D is the longest diameter of the tumor node and d is the shortest diameter of the tumor node perpendicular to D. The mice were sacrificed on day 21 after tumor transplantation and the tumors and brains were collected for subsequent histological and pharmacological analysis.\nFor the histological study, the tumor specimens were fixed in 10% neutral-buffered formalin (BioVitrum, St. Petersburg, Russia), dehydrated in ascending ethanols and xylols and embedded in HISTOMIX paraffin (BioVitrum, St. Petersburg, Russia). The paraffin sections (5 μm) were sliced on a Microm HM 355S microtome (Thermo Fisher Scientific, Waltham, MA, USA) and stained with hematoxylin and eosin. Extracellular matrix deposition was determined using Masson’s trichrome staining.\nFor the immunohistochemical study, the tumor sections (3–4 μm) were deparaffinized and rehydrated. Antigen retrieval was carried out after exposure in a microwave oven at 700 W. The samples were incubated with anti-Ki-67 (ab16667, Abcam, Boston, MA, USA), anti-α-SMA (ab5694, Abcam, USA) or anti-CD31 (ab182981, Abcam, USA) primary antibodies according to the manufacturer’s protocol. Then, the sections were incubated with secondary horseradish peroxidase (HPR)-conjugated antibodies, exposed to the 3,3′-diaminobenzidine (DAB) substrate (Rabbit Specific HRP/DAB (ABC) Detection IHC Kit, ab 64261, Abcam, USA) and stained with Mayer’s hematoxylin.\nMorphometric analysis of tumor sections included evaluation of the numerical density (Nv) of mitoses and Ki-67-positive cells in a square unit of tumor tissue—3.2 × 10^6 μm^2 in this case. At least ten random fields from the tumor specimens of six mice in each group (60 testing fields in total) were studied."}, "[1]": {"conditions": "20 mg/kg i.p., seven injections"}, "[2]": {"conditions": "20 mg/kg i.p., seven injections, day 21"}}}
{"smiles": "CC1(C)C(=O)C(C#N)=C[C@]2(C)C3=CC(=O)[C@@H]4[C@@H]5C[C@@](C)(C(=O)NCCc6c[nH]c7ccccc67)CC[C@]5(C)CC[C@@]4(C)[C@]3(C)CC[C@@H]12", "note": "[compound 12]", "values": [{"measurement": "inhibition of 2D migration compared to the control", "setting": "U118 cells", "value": "two times"}, {"measurement": "decrease in tumor weight compared to the untreated group", "setting": "U87 glioblastoma; [1]", "value": 2.1, "unit": "fold"}, {"measurement": "decrease in tumor weight compared to the vehicle-treated group", "setting": "U87 glioblastoma; [1]", "value": 3.4, "unit": "fold"}, {"measurement": "decrease in tumor volume compared to the control", "setting": "U87 glioblastoma; [2]", "value": 3, "unit": "fold"}, {"measurement": "decrease in tumor volume compared to the vehicle-treated group", "setting": "U87 glioblastoma; [2]", "value": 4.4, "unit": "fold"}, {"measurement": "decrease in numerical density of Ki-67-positive cells compared to the untreated control group", "setting": "U87 glioblastoma; 20 mg/kg i.p., tumor tissue", "value": 3.5, "unit": "fold"}, {"measurement": "decrease in numerical density of Ki-67-positive cells compared with vehicle-treated animals", "setting": "U87 glioblastoma; 20 mg/kg i.p., tumor tissue", "value": 2.4, "unit": "fold"}, {"measurement": "decrease in numerical density of mitotic cells (Nv) compared to the untreated control group", "setting": "U87 glioblastoma; 20 mg/kg i.p., tumor tissue", "value": 3.4, "unit": "fold"}, {"measurement": "decrease in numerical density of mitotic cells (Nv) compared with vehicle-treated animals", "setting": "U87 glioblastoma; 20 mg/kg i.p., tumor tissue", "value": 4, "unit": "fold"}, {"measurement": "collagen fiber content in tumor tissue", "setting": "U87 glioblastoma; Masson's trichrome, versus untreated and vehicle-treated mice", "value": "decreased the collagen fiber content"}, {"measurement": "expression of CD31 and α-SMA in tumor tissue", "setting": "U87 glioblastoma; immunohistochemistry, versus control and vehicle-treated mice", "value": "increased the expression of both CD31 and α-SMA"}]}
